Data: PubChem BioAssay (NCI)
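All cell lines were grown in 96-well plates and treated with compound for 48 hours. TGI marks complete inhibition of growth.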

What was measured:
Assay in all cases: NCI-60 cell line screen, 48 h
DLD-1 colon = system: DLD-1 colon
UACC-62 melanoma = system: UACC-62 melanoma
HCC-2998 colon = system: HCC-2998 colon
HCT-15 colon = system: HCT-15 colon
SNB-78 CNS = system: SNB-78 CNS
HCT-116 colon = system: HCT-116 colon
SW-620 colon = system: SW-620 colon
HOP-62 NSCLC = system: HOP-62 NSCLC
U251 CNS = system: U251 CNS
LOX IMVI melanoma = system: LOX IMVI melanoma
MDA-MB-435 = system: MDA-MB-435

Structure (SMILES): CSc1nc(NC2OCC(O)C(O)C2O)c(N)c(=O)n1C (stereo unspecified)
- TGI (DLD-1 colon): > 100 µM
- TGI (UACC-62 melanoma): > 100 µM
- TGI (HCC-2998 colon): > 100 µM
- TGI (HCT-15 colon): > 100 µM
- TGI (SNB-78 CNS): > 100 µM
- TGI (HCT-116 colon): > 100 µM
- TGI (SW-620 colon): > 100 µM
- TGI (HOP-62 NSCLC): > 100 µM
- TGI (U251 CNS): > 100 µM
- TGI (LOX IMVI melanoma): > 100 µM

Structure (SMILES): C[C@@H]1C[C@]2(C[C@@H](C)[C@H]3C(C[C@@]4(C)CCC[C@@H]5C6=C[C@H](CCC34C)OC6=CC(=O)OC5(C)C)O2)OC1=O (stereo partly specified)
- TGI (DLD-1 colon): > 51.5 µM
- TGI (UACC-62 melanoma): > 51.5 µM
- TGI (HCC-2998 colon): > 51.5 µM
- TGI (HCT-15 colon): > 51.5 µM
- TGI (SNB-78 CNS): > 51.5 µM
- TGI (SW-620 colon): > 51.5 µM
- TGI (HOP-62 NSCLC): > 51.5 µM
- TGI (U251 CNS): > 51.5 µM
- TGI (LOX IMVI melanoma): > 51.5 µM

Structure (SMILES): COc1ccc(C[C@H](N)C(=O)N2C[C@H](CO)C[C@H](n3ccc(=O)[nH]c3=O)C2)cc1
- TGI (DLD-1 colon): > 100 µM
- TGI (UACC-62 melanoma): > 100 µM
- TGI (HCC-2998 colon): > 100 µM
- TGI (HCT-15 colon): > 100 µM
- TGI (HCT-116 colon): > 100 µM
- TGI (SW-620 colon): > 100 µM
- TGI (HOP-62 NSCLC): > 100 µM
- TGI (U251 CNS): > 100 µM
- TGI (LOX IMVI melanoma): > 100 µM

Structure (SMILES): C=CC(C)(C)N[C@@H](C(=O)N1CCC[C@H]1c1nc(-c2nc(C(=O)OCC=C(C)C)c(C)o2)c(C)o1)C(C)C
- TGI (UACC-62 melanoma): 38.6 µM
- TGI (HCC-2998 colon): 36 µM
- TGI (MDA-MB-435): 39.8 µM
- TGI (HCT-15 colon): 51.5 µM
- TGI (HCT-116 colon): 38.6 µM
- TGI (SW-620 colon): 53.8 µM
- TGI (HOP-62 NSCLC): 51.7 µM
- TGI (U251 CNS): 45.1 µM
- TGI (LOX IMVI melanoma): > 100 µM

Structure (SMILES): [N-]=[N+]=NC1CC(n2cc(COCC(F)(F)F)c(=O)[nH]c2=O)OC1CO (stereo unspecified)
- TGI (DLD-1 colon): > 100 µM
- TGI (UACC-62 melanoma): > 100 µM
- TGI (HCC-2998 colon): > 100 µM
- TGI (SNB-78 CNS): > 100 µM
- TGI (SW-620 colon): > 100 µM
- TGI (HOP-62 NSCLC): > 100 µM
- TGI (U251 CNS): > 100 µM
- TGI (LOX IMVI melanoma): > 100 µM

Structure (SMILES): C=C1C(=O)O[C@H]2C/C(C)=C/CC/C(C)=C/CC[C@@](C)(O)[C@@H](I)C[C@@H]12
- TGI (UACC-62 melanoma): 23.9 µM
- TGI (HCC-2998 colon): 25.6 µM
- TGI (MDA-MB-435): 23.2 µM
- TGI (HCT-15 colon): 20.1 µM
- TGI (HCT-116 colon): 12.3 µM
- TGI (SW-620 colon): 19.8 µM
- TGI (HOP-62 NSCLC): 30.9 µM
- TGI (U251 CNS): 33.4 µM
- TGI (LOX IMVI melanoma): 3.31 µM

Structure (SMILES): COc1ccc2c(c1)nc1n2C(N)=Nc2ccccc2S1
- TGI (UACC-62 melanoma): > 74.4 µM
- TGI (HCC-2998 colon): > 100 µM
- TGI (MDA-MB-435): > 100 µM
- TGI (HCT-15 colon): > 100 µM
- TGI (HCT-116 colon): > 100 µM
- TGI (SW-620 colon): > 100 µM
- TGI (HOP-62 NSCLC): > 100 µM
- TGI (U251 CNS): > 100 µM
- TGI (LOX IMVI melanoma): > 72.8 µM

Structure (SMILES): CC(C)[C@H]1NC(=O)[C@H]2N=C(O[C@@H]2C)[C@@H]2CCCN2C(=O)[C@H](Cc2ccccc2)NC(=O)[C@@H]2CSC(=N2)[C@@H](Cc2ccccc2)NC(=O)[C@@H]2CSC1=N2
- TGI (UACC-62 melanoma): > 100 µM
- TGI (HCC-2998 colon): > 100 µM
- TGI (MDA-MB-435): > 100 µM
- TGI (HCT-15 colon): > 100 µM
- TGI (HCT-116 colon): > 100 µM
- TGI (SW-620 colon): > 100 µM
- TGI (HOP-62 NSCLC): > 100 µM
- TGI (U251 CNS): > 100 µM
- TGI (LOX IMVI melanoma): > 100 µM

Structure (SMILES): Cc1ccc(NC(=S)Nc2c(C)n(C)n(-c3ccccc3)c2=O)cc1
- TGI (UACC-62 melanoma): > 100 µM
- TGI (HCC-2998 colon): > 100 µM
- TGI (MDA-MB-435): > 100 µM
- TGI (HCT-15 colon): > 100 µM
- TGI (HCT-116 colon): > 100 µM
- TGI (SW-620 colon): > 100 µM
- TGI (HOP-62 NSCLC): > 100 µM
- TGI (U251 CNS): > 100 µM
- TGI (LOX IMVI melanoma): > 100 µM

Structure (SMILES): O=C(OCCN1CCCCC1)C(c1ccccc1)C1(O)CCSCC1 (stereo unspecified)
- TGI (UACC-62 melanoma): > 100 µM
- TGI (HCC-2998 colon): > 100 µM
- TGI (MDA-MB-435): > 100 µM
- TGI (HCT-15 colon): > 100 µM
- TGI (HCT-116 colon): > 100 µM
- TGI (SW-620 colon): > 100 µM
- TGI (HOP-62 NSCLC): > 100 µM
- TGI (U251 CNS): > 100 µM
- TGI (LOX IMVI melanoma): > 100 µM

Structure (SMILES): Oc1ccc2c(c1)CC[N+]1=C2CCC2CCCC21 (stereo unspecified)
- TGI (DLD-1 colon): > 100 µM
- TGI (UACC-62 melanoma): > 100 µM
- TGI (HCC-2998 colon): > 100 µM
- TGI (HCT-15 colon): > 100 µM
- TGI (HCT-116 colon): > 100 µM
- TGI (SW-620 colon): > 100 µM
- TGI (LOX IMVI melanoma): > 100 µM

Structure (SMILES): COc1ccc(/C=C2\CC3C4CC=C5C[C@@H](O)CC[C@]5(C)C4CC[C@]3(C)\C2=N\O)cc1OC (stereo partly specified)
- TGI (UACC-62 melanoma): 25.6 µM
- TGI (HCC-2998 colon): > 100 µM
- TGI (MDA-MB-435): > 100 µM
- TGI (HCT-15 colon): > 100 µM
- TGI (HCT-116 colon): > 100 µM
- TGI (SW-620 colon): > 100 µM
- TGI (HOP-62 NSCLC): > 100 µM
- TGI (U251 CNS): > 100 µM
- TGI (LOX IMVI melanoma): > 100 µM

Structure (SMILES): N#Cc1c(N2CCCC2)ncn(Cc2ccccc2)c1=S
- TGI (UACC-62 melanoma): > 100 µM
- TGI (HCC-2998 colon): > 100 µM
- TGI (MDA-MB-435): > 100 µM
- TGI (HCT-15 colon): > 100 µM
- TGI (HCT-116 colon): > 100 µM
- TGI (SW-620 colon): > 100 µM
- TGI (HOP-62 NSCLC): > 100 µM
- TGI (U251 CNS): > 100 µM
- TGI (LOX IMVI melanoma): > 100 µM

Structure (SMILES): N/N=C1/C(=N/O)CCc2nonc21
- TGI (UACC-62 melanoma): > 100 µM
- TGI (HCC-2998 colon): > 100 µM
- TGI (MDA-MB-435): > 100 µM
- TGI (HCT-15 colon): > 100 µM
- TGI (HCT-116 colon): > 100 µM
- TGI (SW-620 colon): > 100 µM
- TGI (HOP-62 NSCLC): > 100 µM
- TGI (U251 CNS): > 100 µM
- TGI (LOX IMVI melanoma): > 100 µM

Structure (SMILES): O=c1[nH]c2ccccc2nc1/C=C(\O)C(F)F
- TGI (UACC-62 melanoma): > 100 µM
- TGI (HCC-2998 colon): > 100 µM
- TGI (MDA-MB-435): > 100 µM
- TGI (HCT-15 colon): > 100 µM
- TGI (HCT-116 colon): > 100 µM
- TGI (SW-620 colon): > 100 µM
- TGI (HOP-62 NSCLC): > 100 µM
- TGI (U251 CNS): > 100 µM
- TGI (LOX IMVI melanoma): > 100 µM

Structure (SMILES): CC(NC1=NCCO1)c1cccc([N+](=O)[O-])c1 (stereo unspecified)
- TGI (UACC-62 melanoma): > 100 µM
- TGI (HCC-2998 colon): > 100 µM
- TGI (MDA-MB-435): > 100 µM
- TGI (HCT-15 colon): > 100 µM
- TGI (HCT-116 colon): > 100 µM
- TGI (SW-620 colon): > 100 µM
- TGI (HOP-62 NSCLC): > 100 µM
- TGI (U251 CNS): > 100 µM
- TGI (LOX IMVI melanoma): > 100 µM

Structure (SMILES): COc1ccc(/C=C(\C(=C/c2ccc(OC)cc2)[N+](=O)[O-])[N+](=O)[O-])cc1
- TGI (UACC-62 melanoma): 9.38 µM
- TGI (HCC-2998 colon): 30.9 µM
- TGI (MDA-MB-435): 12.1 µM
- TGI (HCT-15 colon): 6.18 µM
- TGI (HCT-116 colon): 24.8 µM
- TGI (SW-620 colon): 7.87 µM
- TGI (HOP-62 NSCLC): 21.2 µM
- TGI (U251 CNS): 8.52 µM
- TGI (LOX IMVI melanoma): 5 µM
